Laboratory results reported in patent US11213563B2, “Polypeptide and use thereof” (Genoimmune Therapeutics Co., Ltd., priority 2016, dated 2022).

Legend:
CD8^+ T cells = assay: IFN-γ ELISPOT of CD8+ T cell immune response activated by polypeptide; assay type: cell-based, human; conditions: for Conclusion (immunogenicity): ELISPOT spot ratio >2 criterion; for Number of spots produced by mutant polypeptide or each of its variants / Number of spots produced by wild-type polypeptide: IFN-γ ELISPOT, T cells activated by the listed polypeptide; for Number of spots produced by mutant polypeptide or each of its variants: T2 cells loaded with mutant polypeptide; for Number of spots produced by wild-type polypeptide: T2 cells loaded with wild-type polypeptide FILDGSYSV; for Ratio of mutant polypeptide to wild-type polypeptide: spot number ratio, >2 indicates immunogenicity
From the text: The mutant polypeptide with immunogenicity should meet the following requirement:
Spots number of mutant polypeptide/spots number of wild-type polypeptide>2,
After specifically recognizing the complex of HLA-A0201 and the mutant polypeptide, the polypeptide specific-CD8^+T cell is activated and secretes IFN-γ, which will be captured by the firstly antibody coated on the ELISPOT plate and further be bound by an enzyme-coupled secondly antibody, and finally developed by addition of a substrate which can be catalyzed by the enzyme, thus forming colored spots. The number of spots produced represents the number of the IFN-γ secreted by the activated CD8^+T cell.

T2 cells = assay: LDH release assay of CD8+ T cell killing activity; assay type: cell-based, human; set-up: Killing efficiency: concentration or dose not given beside the values; conditions: for Killing efficiency: 4 hours; for Killing of T2 cells loaded with the mutant polypeptide by activated T cells / Killing of T2 cells loaded with the wild-type polypeptide by activated T cells: ratio of effector cells to target cells of 1:1 or 1:10 (so in the source)
Description: The mixture of cells collected in the example 3 were incubated with the T2 cells loaded with the mutant polypeptide (depicted in […], SEQ ID NO:1) or the wild-type polypeptide (depicted in […], SEQ ID NO:7), or the T2 cells without polypeptide respectively for 4 hours; after which […], cell supernatant collected from each well was individually added into 50 μL substrate mixture of LDH for catalyzation of the LDH substrate, and the absorbance at wavelengths of 490 nm and 680 nm (as a reference) is measured, where a maximum release well, a volume correction well, a medium alone well, a spontaneous release well of effector cell and a spontaneous release well of target well as different control wells, as well effector cells (T cells) and target cells (T2 cell) in different ratios as experiment wells are set in triplicate.
The killing efficiency of CD8^+ T cells to T2 cells is calculated by the following formula: Killing efficiency (%)=(experiment well−spontaneous release well of effector cell−spontaneous release well of target well+medium alone well)/(maximum release well of target well-volume correction well-spontaneous release well of target well+medium alone well)×100%.

[1] = system: human non-small cell lung adenocarcinoma cell line H2087-polypeptide FILDGLYSV; assay: Polypeptide + Freund's adjuvant vaccine in subcutaneous tumor-modeled NOD/SCID mice; assay type: in vivo; conditions: adjuvant+polypeptide 100 μg s.c., 4 immunizations; vs adjuvant alone and adjuvant+wild-type polypeptide groups
Description: (§1) After isolated with Ficoll solution from 600 to 900 ml anticoagulant peripheral blood from a healthy volunteer, the collected PBMCs in a concentration of 2×10^7 cells/0.5 ml were intraperitoneally injected into each of 300 NOD SCID mice without immune leakage, so as to reconstruct a human immune system in the NOD SCID mice, with the mice after 4 weeks selected for subsequent inoculation of the human non-small cell lung adenocarcinoma cell line H2087-polypeptide […] obtained in 6.2.
The human non-small cell lung adenocarcinoma cell line H2087-polypeptide […] (SEQ ID NO:1) obtained in 6.2 was incubated in DMEM medium containing 10% fetal calf serum, 100 U/mL penicillin and 100 U/mL streptomycin in an incubator under 37° C. and 5% CO2, and then the cells were centrifuged at 3000 rpm for collection. The collected cells were washed with sterile physiological saline three times, and then diluted appropriately. To 40 μl tumor cell suspension, 10 μl 0.4% […] was added for staining, subsequently the tumor cell suspension in a concentration of 1×10^8 cells/ml was prepared after counting under microscope. 100 μl of the tumor cell suspension was inoculated into each of the NOD/SCID mice by subcutaneous injection at 4 weeks post immune reconstruction in 6.3, with daily observation of the presence/absence of infection at inoculation sites, the increase/decrease of tumor size (in the case of presence of a tumor), and measurement of the major axis (a) and the minor axis (b) of a tumor by a vernier caliper every 2 or 3 days (where the tumor size=a×b×b/2). After 7 days from inoculation, a tumor in a size of rice grain was touchable at the inoculation site. After that, the subcutaneous tumor-modeled NOD/SCID mice (modeled with H2087-polypeptide […] (SEQ ID NO:1)) were treated with a polypeptide+complete Freund's adjuvant vaccine, a polypeptide+DCs vaccine, a lentivirus-infected DCs vaccine and a DC-CTL vaccine respectively, with the tumor size and mouse survival rate observed and recorded every 2 days.
The subcutaneous tumor-modeled NOD/SCID mice obtained in 6.4 of the example 6 were divided into 8 groups randomly as below, with 6 mice per group.
After 2 weeks, differently-immunized mice in 7 groups received respective same-dosage booster immunizations at 2 week interval for 4 times in total, with incomplete Freund's adjuvant for the latter three immunizations.
The general characteristics (including mental state, activity, response, diet, body weight and tumor growth) of the mice were observed daily, where the major axis (a) and the minor axis (b) of a tumor were measured by a vernier caliper every 2 days for calculation of tumor size according to a formula of a×b×b/2, where the mouse survival rate in a time period is calculated by the following formula: Survival rate=the number of survival mice/(the number of survival mice+the number of dead mice)×100%.

[2] = system: human non-small cell lung adenocarcinoma cell line H2087-polypeptide FILDGLYSV; assay: Polypeptide-specific DC-CTL vaccine in subcutaneous tumor-modeled NOD/SCID mice; assay type: in vivo; conditions: CTLs stimulated by DCs loaded with the polypeptide, i.v. 1×10^8 cells/mouse; vs wild-type CTL group
Description: as §1
The human non-small cell lung adenocarcinoma cell line H2087-polypeptide […] (SEQ ID NO:1) obtained in 6.2 was incubated in DMEM medium containing 10% fetal calf serum, 100 U/mL penicillin and 100 U/mL streptomycin in an incubator under 37° C. and 5% CO2, and then the cells were centrifuged at 3000 rpm for collection. The collected cells were washed with sterile physiological saline three times, and then diluted appropriately. To 40 μl tumor cell suspension, 10 μl 0.4% […] was added for staining, subsequently the tumor cell suspension in a concentration of 1×10^8 cells/ml was prepared after counting under microscope. 100 μl of the tumor cell suspension was inoculated into each of the NOD/SCID mice by subcutaneous injection at 4 weeks post immune reconstruction in 6.3, with daily observation of the presence/absence of infection at inoculation sites, the increase/decrease of tumor size (in the case of presence of a tumor), and measurement of the major axis (a) and the minor axis (b) of a tumor by a vernier caliper every 2 or 3 days (where the tumor size=a×b×b/2).
The number of T lymphocytes was counted at day 0, 7, 14 and 21 post incubation, for calculation of cell proliferation index (PI), where PI=cell number after proliferation/cell number seeded. The cytotoxic T lymphocytes (CTLs) were harvested at day 21 post incubation, which were suspended in 0.2 ml physiological saline, and then injected intravenously to the subcutaneous tumor-modeled NOD/SCID mice via the tail in an amount of 1×10^8 cells/mouse. The vital signs of the mice were observed after administration, and the major axis (a) and the minor axis (b) of a tumor were measured by a vernier caliper every 2 days for calculation of tumor size.

[3] = T cells activated by listed polypeptide + T2 cells loaded with mutant FILDGLYSV, effector:target 1:1
[4] = T cells activated by listed polypeptide + T2 cells loaded with mutant FILDGLYSV, effector:target 10:1
[5] = T cells activated by listed polypeptide + T2 cells loaded with wild-type FILDGSYSV, effector:target 1:1
[6] = T cells activated by listed polypeptide + T2 cells loaded with wild-type FILDGSYSV, effector:target 10:1

Sequence	Conclusion (immunogenicity) (CD8^+ T cells)	Number of spots produced by mutant polypeptide or each of its variants (CD8^+ T cells)	Number of spots produced by wild-type polypeptide (CD8^+ T cells)	Ratio of mutant polypeptide to wild-type polypeptide (CD8^+ T cells)	Killing efficiency (T2 cells; [3])	Killing efficiency (T2 cells; [4])	Killing efficiency (T2 cells; [5])	Killing efficiency (T2 cells; [6])	Killing of T2 cells loaded with the mutant polypeptide by activated T cells (T2 cells)	Killing of T2 cells loaded with the wild-type polypeptide by activated T cells (T2 cells)	Mouse survival period [1]	Tumor growth [1]	Mouse survival period [2]	Tumor growth [2]
FILDGLYSL [mutant polypeptide's variant, Leucine at position 9]	immunogenic	313	37	8.46	8.09%	38.60%	3.12%	4.71%	capable of killing	could not kill	prolonging mouse survival period effectively	inhibiting tumor growth	prolonging mouse survival period significantly	inhibiting tumor growth
FILDGLYSV [mutant polypeptide from COL21A1, Serine at position 45 mutated into Leucine]	immunogenic	296	29	10.2	7.33%	37.39%	2.07%	4.93%	capable of killing	could not kill	prolonging mouse survival period effectively	inhibiting tumor growth	prolonging mouse survival period significantly	inhibiting tumor growth
FLLDGLYSL [mutant polypeptide's variant, Leucine at positions 2 and 9]	immunogenic	279	24	11.62	7.05%	35.15%	3.56%	6.21%	capable of killing	could not kill	prolonging mouse survival period effectively	inhibiting tumor growth	prolonging mouse survival period significantly	inhibiting tumor growth
FLLDGLYSV [mutant polypeptide's variant, Leucine at position 2]	immunogenic	301	42	7.17	8.38%	39.16%	2.85%	5.43%	capable of killing	could not kill	prolonging mouse survival period effectively	inhibiting tumor growth	prolonging mouse survival period significantly	inhibiting tumor growth
FMLDGLYSL	immunogenic	319	35	9.11	8.96%	40.13%	3.13%	5.83%	capable of killing	could not kill	prolonging mouse survival period effectively	inhibiting tumor growth	prolonging mouse survival period significantly	inhibiting tumor growth
FMLDGLYSV	immunogenic	335	50	6.7	9.15%	42.10%	2.37%	5.63%	capable of killing	could not kill	prolonging mouse survival period effectively	inhibiting tumor growth	prolonging mouse survival period significantly	inhibiting tumor growth
